Results from publication PMC5077133, “Towards Development of Small Molecule Lipid II Inhibitors as Novel Antibiotics” (PLoS ONE, 2016).

Experiments:
[1] = test system: HeLa cells; experiment: Cytotoxicity against mammalian cells (MTS assay); format: cell-based
Procedure: The cytotoxicity concentration of antibacterial compounds that produces half maximal decrease in viability (CC50) against mammalian cells (HeLa, ATCC CCL-2.2) was determined as described. The effect of compounds on HeLa cell viability was assessed in triplicate by measuring the mitochondrial activity using MTS assays according to the manufacturer’s instructions (Cell Titer 96 proliferation assay, Promega). The cells were incubated for 72 hours in RPMI1640 medium containing the compounds at final concentrations ranging from 64 to 0.125 μg/ml. CC50 was determined using a standard curve of serially diluted untreated cells in each experiment.

[2] = test system: A. baumanii ATCC 19606; experiment: Antibacterial activity (MIC, broth dilution); format: cell-based, Acinetobacter baumanii; conditions: CLSI, in µg/mL
From the text: Staphylococcus aureus ATCC 29213, Escherichia coli ATCC 25922, Enterococcus faecalis ATCC 29212, Streptococcus pneumonia ATCC 49619 and Acinetobacter baumanii ATCC 19606 were obtained from Microbiologics (St. Cloud, MN). E. faecalis ATCC 51575, ATCC 51299 and REMEL C99707 and E. faecium ATCC 51559 (MDR), REMEL IH79985 and REMEL C110914 were generously provided by the Laboratory of Pathology, University of Maryland Baltimore School of Medicine. Unless stated otherwise, chemicals and reagents were purchased from Sigma.
(§1) Determination of the Minimal Inhibitory Concentrations (MIC) by dilution was carried out by broth dilution according to CLSI standards.

[3] = Lipid II binding by Surface Plasmon Resonance; conditions: SPR, immobilized 3-Lipid II, 25°C
Procedure: Short-chain water-soluble Lipid II containing a lipid tail of three isoprene units was generated and purified essentially as described. Typically, M. flavus vesicles (120 μmol lipid-Pi) were incubated together with 500 μmol UDP-GlcNAc, 500 μmol UDP-MurNAC-pentapeptide and 400 μmol farnesyl phosphate in 100 mM Tris-HCl pH 8.0, 5 mM MgCl2. The incubation lasted two hours at room temperature for 3-P. The synthesis of 3-Lipid II was followed using RP-8 reversed phase TLC (Merck) developed in 75% methanol. For purification, the membranes were removed by centrifugation at 40,000 x g and the supernatant was collected and loaded on a C18 HPLC column and eluted with a linear gradient from 50 mM ammonium bicarbonate to 100% methanol in 30 minutes. Farnesyl-Lipid II (3-Lipid II) eluted at approximately 60% methanol. Its identity was confirmed by mass spectroscopy. Surface Plasmon Resonance binding experiments were carried out on a BIAcore T100 system (BIAcore Inc., Piscataway, NY) at 25°C. The assay buffer was 10 mM HEPES, 150 mM NaCl, 0.05% surfactant P20, pH 7.4 (± 3 mM EDTA) supplemented with 10% DMSO. 3-Lipid II (50 RUs) was immobilized on CM5 sensor chips using the amine-coupling chemistry recommended by the manufacturer. For initial determination of binding, compounds were introduced into the flow-cells (30 μl/min) in the running buffer at 10 μM. Resonance signals were corrected for nonspecific binding by subtracting the background of the control flow-cell. After each analysis, the sensor chip surfaces were regenerated with 50 mM NaOH for 30 s at a flow rate 100 μl/min, and equilibrated with the buffer prior to next injection. For binding kinetics studies, binding isotherms were analyzed with manufacturer-supplied software for BIAcore T100.

[4] = test system: E. cloacae ATCC 13047; experiment: Antibacterial activity (MIC, broth dilution); format: cell-based; conditions: CLSI
Procedure: as §1

[5] = test system: K. pneumoniae NR-15410 (KPC); experiment: Antibacterial activity (MIC, broth dilution); format: cell-based; conditions: CLSI
Procedure: as §1

[6] = test system: S. aureus MRSA 1094; experiment: Antibacterial activity (MIC, broth dilution); format: cell-based; conditions: CLSI
Procedure: as §1

[7] = test system: E. faecium F118 (VRE); experiment: Antibacterial activity (MIC, broth dilution); format: cell-based; conditions: CLSI, in µg/mL
Procedure: as §1

[8] = test system: P. aeruginosa X13273; experiment: Antibacterial activity (MIC, broth dilution); format: cell-based; conditions: CLSI, in µg/mL
Procedure: as §1

[9] = test system: S. aureus HFH-30123 (MRSA); experiment: Antibacterial activity (MIC, broth dilution); format: cell-based; conditions: CLSI
Procedure: as §1

[10] = test system: E. faecium EF1509 (VRE); experiment: Antibacterial activity (MIC, broth dilution); format: cell-based; conditions: CLSI, in µg/mL
Procedure: as §1

[11] = test system: P. aeruginosa PA01; experiment: Antibacterial activity (MIC, broth dilution); format: cell-based; conditions: CLSI
Procedure: as §1

[12] = test system: P. aeruginosa ATCC 27853; experiment: Antibacterial activity (MIC, broth dilution); format: cell-based; conditions: CLSI
Procedure: as §1

[13] = test system: E. aerogenes ATCC 13048; experiment: Antibacterial activity (MIC, broth dilution); format: cell-based; conditions: CLSI
Procedure: as §1

[14] = test system: K. pneumoniae NR-15411 (KPC); experiment: Antibacterial activity (MIC, broth dilution); format: cell-based; conditions: CLSI
Procedure: as §1

With `Brc1ccc(-c2cc(/C=C/c3cc4c5c(c3)CCCN5CCC4)[o+]c(-c3ccc(Br)cc3)c2)cc1.F[B-](F)(F)F` [6jc-69-5] as the compound, how does the “CC50% (72 h HeLa cells)” value [1] read?
The value was 4.43.

And the “Antibacterial activity (MIC) A. baumanii ATCC 19606” value [2]?
The value was “>=64”.

And the Kd [3]?
The Kd was 32.7 ± 2 µM.

What about the Antibacterial activity (MIC) E. cloacae ATCC 13047 [4] of the same compound?
Its Antibacterial activity (MIC) E. cloacae ATCC 13047 is ≥ 64 µg/mL.

What about the Antibacterial activity (MIC) K. pneumoniae NR-15410 (KPC) [5] of the same compound?
The Antibacterial activity (MIC) K. pneumoniae NR-15410 (KPC) was ≥ 64 µg/mL.

What about the Antibacterial activity (MIC) S. aureus MRSA 1094 [6] of the same compound?
The Antibacterial activity (MIC) S. aureus MRSA 1094 was ≥ 64 µg/mL.

What about the “Antibacterial activity (MIC) E. faecium F118 (VRE)” value [7] of the same compound?
The value was 11.31.

And the “Antibacterial activity (MIC) P. aeruginosa X13273” value [8]?
The value was “>=64”.

And the Antibacterial activity (MIC) S. aureus HFH-30123 (MRSA) [9]?
Its Antibacterial activity (MIC) S. aureus HFH-30123 (MRSA) is 64 µg/mL.

And the “Antibacterial activity (MIC) E. faecium EF1509 (VRE)” value [10]?
The value was 6.

What about the Antibacterial activity (MIC) P. aeruginosa PA01 [11] of the same compound?
The Antibacterial activity (MIC) P. aeruginosa PA01 was ≥ 64 µg/mL.

And the Antibacterial activity (MIC) P. aeruginosa ATCC 27853 [12]?
The Antibacterial activity (MIC) P. aeruginosa ATCC 27853 was ≥ 64 µg/mL.

What about the Antibacterial activity (MIC) E. aerogenes ATCC 13048 [13] of the same compound?
Its Antibacterial activity (MIC) E. aerogenes ATCC 13048 is ≥ 64 µg/mL.

And the Antibacterial activity (MIC) K. pneumoniae NR-15411 (KPC) [14]?
Its Antibacterial activity (MIC) K. pneumoniae NR-15411 (KPC) is ≥ 64 µg/mL.

What does the source list for `Cc1ccc(-c2cc(/C=C/c3c[nH]c4ccccc34)[o+]c(-c3ccc(C)c(C)c3)c2)cc1C.F[B-](F)(F)F` [6jc-59-3]?
CC50% (72 h HeLa cells) [1]: 1.35; Antibacterial activity (MIC) A. baumanii ATCC 19606 [2]: >=64; Kd [3]: 27.9 ± 3 µM; Antibacterial activity (MIC) E. cloacae ATCC 13047 [4]: ≥ 64 µg/mL; Antibacterial activity (MIC) K. pneumoniae NR-15410 (KPC) [5]: ≥ 64 µg/mL; Antibacterial activity (MIC) S. aureus MRSA 1094 [6]: 4 µg/mL; Antibacterial activity (MIC) E. faecium F118 (VRE) [7]: 8; Antibacterial activity (MIC) P. aeruginosa X13273 [8]: >=64; Antibacterial activity (MIC) S. aureus HFH-30123 (MRSA) [9]: 4 µg/mL; Antibacterial activity (MIC) E. faecium EF1509 (VRE) [10]: 5.657; Antibacterial activity (MIC) P. aeruginosa PA01 [11]: ≥ 64 µg/mL; Antibacterial activity (MIC) P. aeruginosa ATCC 27853 [12]: ≥ 64 µg/mL; Antibacterial activity (MIC) E. aerogenes ATCC 13048 [13]: ≥ 64 µg/mL; Antibacterial activity (MIC) K. pneumoniae NR-15411 (KPC) [14]: ≥ 64 µg/mL

What does the source list for `CCc1ccc(-c2cc(/C=C/c3c[nH]c4ccccc34)[o+]c(-c3ccc(CC)cc3)c2)cc1.F[B-](F)(F)F` [6jc64-3]?
CC50% (72 h HeLa cells) [1]: 3.29; Antibacterial activity (MIC) A. baumanii ATCC 19606 [2]: >=64; Kd [3]: 4.92 ± 0.5 µM; Antibacterial activity (MIC) E. cloacae ATCC 13047 [4]: 64 µg/mL; Antibacterial activity (MIC) K. pneumoniae NR-15410 (KPC) [5]: 64 µg/mL; Antibacterial activity (MIC) S. aureus MRSA 1094 [6]: 5.66 µg/mL; Antibacterial activity (MIC) E. faecium F118 (VRE) [7]: 8; Antibacterial activity (MIC) P. aeruginosa X13273 [8]: >=64; Antibacterial activity (MIC) S. aureus HFH-30123 (MRSA) [9]: 4 µg/mL; Antibacterial activity (MIC) E. faecium EF1509 (VRE) [10]: 8; Antibacterial activity (MIC) P. aeruginosa PA01 [11]: ≥ 64 µg/mL; Antibacterial activity (MIC) P. aeruginosa ATCC 27853 [12]: ≥ 64 µg/mL; Antibacterial activity (MIC) E. aerogenes ATCC 13048 [13]: ≥ 64 µg/mL; Antibacterial activity (MIC) K. pneumoniae NR-15411 (KPC) [14]: 64 µg/mL

Which results are given for `C(=C\c1cc(-c2ccccc2)cc(-c2ccccc2)[o+]1)/c1cc2c3c(c1)CCCN3CCC2.F[B-](F)(F)F` [6jc-58]?
CC50% (72 h HeLa cells) [1]: <.78125; Antibacterial activity (MIC) A. baumanii ATCC 19606 [2]: 8; Kd [3]: 17 ± 4 µM; Antibacterial activity (MIC) E. cloacae ATCC 13047 [4]: 64 µg/mL; Antibacterial activity (MIC) K. pneumoniae NR-15410 (KPC) [5]: 45.3 µg/mL; Antibacterial activity (MIC) S. aureus MRSA 1094 [6]: 1.41 µg/mL; Antibacterial activity (MIC) E. faecium F118 (VRE) [7]: 4; Antibacterial activity (MIC) P. aeruginosa X13273 [8]: 32; Antibacterial activity (MIC) S. aureus HFH-30123 (MRSA) [9]: 2 µg/mL; Antibacterial activity (MIC) E. faecium EF1509 (VRE) [10]: 4; Antibacterial activity (MIC) P. aeruginosa PA01 [11]: 64 µg/mL; Antibacterial activity (MIC) P. aeruginosa ATCC 27853 [12]: 64 µg/mL; Antibacterial activity (MIC) E. aerogenes ATCC 13048 [13]: 32 µg/mL; Antibacterial activity (MIC) K. pneumoniae NR-15411 (KPC) [14]: 64 µg/mL

What does the source list for `Cc1ccc(-c2cc(/C=C/c3cc4c5c(c3)CCCN5CCC4)[o+]c(-c3ccc(C)c(C)c3)c2)cc1C.F[B-](F)(F)F` [6jc-69-3]?
CC50% (72 h HeLa cells) [1]: <.78125; Antibacterial activity (MIC) A. baumanii ATCC 19606 [2]: >=64; Kd [3]: 0.6 ± 0.1 µM; Antibacterial activity (MIC) E. cloacae ATCC 13047 [4]: ≥ 64 µg/mL; Antibacterial activity (MIC) K. pneumoniae NR-15410 (KPC) [5]: ≥ 64 µg/mL; Antibacterial activity (MIC) S. aureus MRSA 1094 [6]: 4 µg/mL; Antibacterial activity (MIC) E. faecium F118 (VRE) [7]: 4; Antibacterial activity (MIC) P. aeruginosa X13273 [8]: >=64; Antibacterial activity (MIC) S. aureus HFH-30123 (MRSA) [9]: 4 µg/mL; Antibacterial activity (MIC) E. faecium EF1509 (VRE) [10]: 2.83; Antibacterial activity (MIC) P. aeruginosa PA01 [11]: ≥ 64 µg/mL; Antibacterial activity (MIC) P. aeruginosa ATCC 27853 [12]: ≥ 64 µg/mL; Antibacterial activity (MIC) E. aerogenes ATCC 13048 [13]: ≥ 64 µg/mL; Antibacterial activity (MIC) K. pneumoniae NR-15411 (KPC) [14]: ≥ 64 µg/mL
